Data as given in ChEMBL document CHEMBL4808212 (Bioorg Med Chem Lett, 2021).

Legend:
[1] = Binding affinity to SARS coronavirus 1 3CL protease using Dabcyl-KTSAVLQ/SGFRKME-Edans as substrate measured by FRET assay; set-up: species or system Severe acute respiratory syndrome-related coronavirus
[2] = target: Replicase polyprotein 1ab (Severe acute respiratory syndrome coronavirus 2, UniProt P0DTD1); test: Inhibition of SARS-CoV-2 3CLpro preincubated for 30 mins followed by addition of (Dabcyl)KTSAVLQSGFRKM(Glu) peptide substrate and measured after […] by FRET assay
[3] = Inhibition of SARS coronavirus 1 3CL protease using Dabcyl-KTSAVLQ/SGFRKME-Edans as substrate measured by FRET assay; set-up: species or system Severe acute respiratory syndrome-related coronavirus
[4] = Inhibition of SARS coronavirus 1 3CL protease expressed in Escherichia coli measured by HPLC method; set-up: species or system Severe acute respiratory syndrome-related coronavirus

| Compound | IC50 [2] | further results |
| --- | --- | --- |
| C[C@@H](OC(C)(C)C)[C@H](NC(=O)OCc1ccccc1)C(=O)N[C@@H](CC1CCCCC1)C(=O)N[C@H](C=O)C[C@@H]1CCNC1=O |  | Ki [1]: 53 nM |
| CCOC(=O)/C=C/[C@H](C[C@@H]1CCNC1=O)NC(=O)[C@H](CC(C)C)NC(=O)[C@@H](NC(=O)OCc1ccccc1)C(C)C | 286 nM |  |
| O=C[C@H](C[C@@H]1CCNC1=O)NC(=O)[C@H](Cc1cccc(F)c1)NC(=O)c1cc2ccccc2[nH]1 | 23 nM |  |
| CC(C)C[C@H](NC(=O)OCc1ccccc1)C(=O)N[C@@H](C[C@@H]1CCNC1=O)C(=O)c1nc2ccccc2s1 | > 10000 nM |  |
| CC(C)C[C@H](NC(=O)OCc1ccccc1)C(=O)N[C@@H](CC(C)C)C(=O)N[C@@H](C[C@@H]1CCNC1=O)C(=O)C(=O)NC(C)C | 65 nM | IC50 [3]: 7 nM |
| COc1cccc2[nH]c(C(=O)N[C@@H](CC(C)C)C(=O)N[C@@H](C[C@@H]3CCNC3=O)C(=O)CO)cc12 [PF-00835231] |  | IC50 [4]: 4 nM |
